Tested on: rat adipocytes
Experiment: Activation of lipogenesis in rat adipocytes
Format: cell-based
Details: insulin 1 nM; twenty independent lipogenesis assays
Description: This was carried out on adipocytes isolated from the epididymal fat pads of young rats. Briefly adipocytes from two rat epididymial fat pads were suspended in 8 ml of Krebs Ringer bicarbonate and 250 μL of the cell suspension was incubated at 37° C. for two hours in Krebs Ringer bicarbonate, containing 1% albumin and 5 mM [U-^14C]-glucose (1 μCi/sample) with or without insulin (1 nM) or 10 μL of IPG solutions. The rate of incorporation of uniformly labelled glucose into fatty acids was used as a measure of lipogenesis.

With Insulin the “Lipogenesis (lipogenic activity)” value was 5160 ± 310 (n-20) milliunits/g liver.
